Earlier results as cited in patent US20170143824A1 (Teva Pharmaceutical Industries, Ltd., priority 2013, published 2017).

Tested on: patients with RRMS
Details: registration trials, compared with placebo

Substance: L-glutamic acid polymer with L-alanine, L-lysine, L-tyrosine, acetate (salt) [glatiramer acetate]
- reduction of relapse rate: about one third
